Measured values reported in patent US11179399B2, “6-heterocyclyl-4-morpholin-4-ylpyridine-2-one compounds useful for the treatment of cancer and diabetes” (Sprint Bioscience AB, priority 2016, dated 2021).

Biological target: Vps34 enzyme (Homo sapiens (Human), UniProt Q8NEB9)
Test: Vps34 biochemical assay (Adapta kinase assay)
Conditions: 20 μM ATP and 200 μM PI:PS in substrate mix, 1 h at room temperature, read-out: Median IC50 uM Adapta
Experimental: Dilution series of compounds of the invention were prepared in DMSO at 100 times the final assay concentration (n1=n0/3 in 10 points). The compounds were further diluted to 4 times the assay concentration in assay buffer (Life technologies buffer Q, PV5125, diluted 5 times supplemented with 2 mM DTT and 2 mM MnCl2). 2.5 μl of the diluted compounds were added to a 384 well assay plate followed by 2.5 μl of 16.5 nM Vps34 enzyme (Life technologies, PV5126). Enzyme and compounds were pre-incubated at rt for 15 min. Then 5 μl of substrate mix containing 20 μM ATP (Life technologies, PV3227) and 200 μM PI:PS substrate (Life technologies, PV5122) in assay buffer was added to the wells containing compound and enzyme. Mixing was performed by pipetting several times. The reaction was incubated at room temperature for 1 h. Then 5 μl stop-detection mix, prepared as described in the Adapta kinase assay kit instructions (Life technologies, PV5099) containing Adapta Eu-anti-ADP antibody (2.3 nM), Alexa Fluor 647 ADP tracer (9 nM) and EDTA (30 mM) in TR-FRET buffer, was added to quench the reaction. Mixing was performed by pipetting several times. The assay plate was then incubated at room temperature for 30 min and read with Artemis micro plate reader. Percent inhibition of the compounds as compared to DMSO treated control samples was calculated. By the use of Dotmatics software compound concentration versus percent inhibition was fitted to generate IC50 values.

Sequence of Vps34 enzyme (Q8NEB9 whole entry): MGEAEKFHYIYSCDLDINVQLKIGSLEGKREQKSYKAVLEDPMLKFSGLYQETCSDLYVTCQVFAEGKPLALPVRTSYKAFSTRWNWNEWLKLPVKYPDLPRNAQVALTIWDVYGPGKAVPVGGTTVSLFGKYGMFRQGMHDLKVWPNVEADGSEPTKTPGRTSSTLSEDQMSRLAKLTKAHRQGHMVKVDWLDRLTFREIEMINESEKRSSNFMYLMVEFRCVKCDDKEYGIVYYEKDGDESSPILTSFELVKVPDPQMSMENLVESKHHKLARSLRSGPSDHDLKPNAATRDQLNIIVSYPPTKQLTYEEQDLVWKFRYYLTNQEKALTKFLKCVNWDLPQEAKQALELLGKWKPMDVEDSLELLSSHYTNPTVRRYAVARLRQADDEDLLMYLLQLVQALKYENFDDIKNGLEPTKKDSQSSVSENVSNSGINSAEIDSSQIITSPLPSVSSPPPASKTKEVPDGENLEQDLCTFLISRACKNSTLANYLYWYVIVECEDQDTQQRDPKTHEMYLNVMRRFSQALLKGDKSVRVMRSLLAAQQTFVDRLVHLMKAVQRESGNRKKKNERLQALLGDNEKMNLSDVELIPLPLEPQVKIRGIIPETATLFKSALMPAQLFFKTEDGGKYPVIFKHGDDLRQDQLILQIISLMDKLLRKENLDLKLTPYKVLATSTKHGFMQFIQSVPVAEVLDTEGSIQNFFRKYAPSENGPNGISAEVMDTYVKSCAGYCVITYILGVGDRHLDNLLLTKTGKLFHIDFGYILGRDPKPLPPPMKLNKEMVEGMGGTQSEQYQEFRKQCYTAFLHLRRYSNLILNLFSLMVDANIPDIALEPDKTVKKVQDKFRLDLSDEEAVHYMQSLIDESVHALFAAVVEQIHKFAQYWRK

SMILES	IC50 [µM]
Cc1cc(C2CCCN2c2cc(N3CCOC[C@H]3C)cc(=O)[nH]2)no1 (single isomer, unassigned) [Example 40_1]	0.1
Cc1ccc(C2CCCN2c2cc(N3CCOC[C@H]3C)cc(=O)[nH]2)o1 (mixture of isomers) [Example 22, (R) and (S) 6-[2-(5-methyl-2-furyl)pyrrolidin-1-yl]-4-[(3R)-3-methylmorpholin-4-yl]-1H-pyridin-2-one]	0.06
Cc1cc(C2CCCN2c2cc(N3CCOC[C@H]3C)cc(=O)[nH]2)nn1C (single isomer, unassigned) [Example 20_2]	0.2
C[C@@H]1COCCN1c1cc(N2CCCC2c2cccc(F)c2)[nH]c(=O)c1 (single isomer, unassigned) [Example 13_2]	0.1
C[C@@H]1COCCN1c1cc(N2CCCC2c2ccccn2)[nH]c(=O)c1 (mixture of isomers) [Example 38, (R) and (S) 4-[(3R)-3-methylmorpholin-4-yl]-6-[2-(2-pyridyl)pyrrolidin-1-yl]-1H-pyridin-2-one]	0.05
C[C@@H]1COCCN1c1cc(N2CCCC2c2ccccn2)[nH]c(=O)c1 (single isomer, unassigned) [Example 38_1]	0.05
Cc1cc(C2CCCN2c2cc(N3CCOC[C@H]3C)cc(=O)[nH]2)nn1C (mixture of isomers) [Example 20, (R) and (S) 6-[2-(1,5-dimethylpyrazol-3-yl)pyrrolidin-1-yl]-4-[(3R)-3-methylmorpholin-4-yl]-1H-pyridin-2-one]	0.2
C[C@@H]1COCCN1c1cc(N2CCCC2c2cc(F)ccc2F)[nH]c(=O)c1 (mixture of isomers) [Example 14, (R) and (S) 6-[2-(2,5-difluorophenyl)pyrrolidin-1-yl]-4-[(3R)-3-methylmorpholin-4-yl]-1H-pyridin-2-one]	0.04
CCn1ccc(C2CCCN2c2cc(N3CCOC[C@H]3C)cc(=O)[nH]2)n1 (mixture of isomers) [Example 21, (R) and (S) 6-[2-(1-ethylpyrazol-3-yl)pyrrolidin-1-yl]-4-[(3R)-3-methylmorpholin-4-yl]-1H-pyridin-2-one]	0.06
C[C@@H]1COCCN1c1cc(N2CCCC2C(=O)N(C)C)[nH]c(=O)c1 (stereo partly drawn) [Example 10, N,N-dimethyl-1-[4-[(3R)-3-methylmorpholin-4-yl]-6-oxo-1H-pyridin-2-yl]pyrrolidine-2-carboxamide]	0.4
C[C@@H]1COCCN1c1cc(N2CCN(C)CC2c2ccccc2)[nH]c(=O)c1 (stereo partly drawn) [Example 31, 4-[(3R)-3-methylmorpholin-4-yl]-6-(4-methyl-2-phenyl-piperazin-1-yl)-1H-pyridin-2-one]	0.3
C[C@@H]1COCCN1c1cc(N2CCOCC2C(F)(F)F)[nH]c(=O)c1 (single isomer, unassigned) [Example 43_2]	0.1
C[C@@H]1COCCN1c1cc(N2CCOCC2c2ccccc2)[nH]c(=O)c1 (mixture of isomers) [Example 26, (R) and (S) 4-[(3R)-3-methylmorpholin-4-yl]-6-(3-phenylmorpholin-4-yl)-1H-pyridin-2-one]	0.06
C[C@@H]1COCCN1c1cc(N2CCCC2c2cnn(C)c2)[nH]c(=O)c1 (single isomer, unassigned) [Example 19_2]	0.3
Cc1cc(C2CCCN2c2cc(N3CCOC[C@H]3C)cc(=O)[nH]2)nn1C (single isomer, unassigned) [Example 20_1]	0.06
C[C@@H]1COCCN1c1cc(N2CCCC2c2ccccc2)[nH]c(=O)c1 (mixture of isomers) [Example 18, (R) and (S) 4-[(3R)-3-methylmorpholin-4-yl]-6-(2-phenylpyrrolidin-1-yl)-1H-pyridin-2-one]	0.06
C[C@@H]1COCCN1c1cc(N2CCCC2c2cccc(OC(F)(F)F)c2)[nH]c(=O)c1 (single isomer, unassigned) [Example 15_1]	0.2
C[C@@H]1COCCN1c1cc(N2CCCC2c2cnn(C)c2)[nH]c(=O)c1 (single isomer, unassigned) [Example 19_1]	0.3

SMILES	IC50 [µM]
C[C@@H]1COCCN1c1cc(N2CCCC2c2ccccn2)[nH]c(=O)c1 (single isomer, unassigned) [Example 38_2]	0.2
CC1COCCN1c1cc(N2CCOC[C@H]2C)cc(=O)[nH]1 (single isomer, unassigned) [Example 24_2]	0.2
Cc1cc(C2CCCN2c2cc(N3CCOC[C@H]3C)cc(=O)[nH]2)no1 (mixture of isomers) [Example 40, (R) and (S) 6-[2-(5-methylisoxazol-3-yl)pyrrolidin-1-yl]-4-[(3R)-3-methylmorpholin-4-yl]-1H-pyridin-2-one]	0.1
CC1COCCN1c1cc(N2CCOC[C@H]2C)cc(=O)[nH]1 (mixture of isomers) [Example 24, (R) and (S) 4-[(3R)-3-methylmorpholin-4-yl]-6-(3-methylmorpholin-4-yl)-1H-pyridin-2-one]	0.03
C[C@@H]1COCCN1c1cc(N2CCCC2c2cccc(C(F)(F)F)c2)[nH]c(=O)c1 (single isomer, unassigned) [Example 16_2]	0.08
C[C@@H]1COCCN1c1cc(N2CCCC2C2CCCCC2)[nH]c(=O)c1 (single isomer, unassigned) [Example 12_2]	0.2
Cn1c(N2CCCC2c2ccccc2)cc(N2CCOCC2)cc1=O (centres unmarked) [Example 2, 1-methyl-4-morpholino-6-(2-phenylpyrrolidin-1-yl)pyridin-2-one]	0.1
C[C@@H]1COCCN1c1cc(N2CCCCC2C(F)(F)F)[nH]c(=O)c1 (single isomer, unassigned) [Example 25_2]	0.08
C[C@@H]1COCCN1c1cc(N2CCCC2c2cccc(OC(F)(F)F)c2)[nH]c(=O)c1 (single isomer, unassigned) [Example 15_2]	0.2
COC(C)(C)C1CCCN1c1cc(N2CCOC[C@H]2C)cc(=O)[nH]1 (mixture of isomers) [Example 11, (R) and (S) 6-[2-(1-methoxy-1-methyl-ethyl)pyrrolidin-1-yl]-4-[(3R)-3-methylmorpholin-4-yl]-1H-pyridin-2-one]	0.09
C[C@@H]1COCCN1c1cc(N2CCCC2c2cccc(F)c2)[nH]c(=O)c1 (single isomer, unassigned) [Example 13_1]	0.06
C[C@@H]1COCCN1c1cc(N2CCCC2c2cccc(C(F)(F)F)c2)[nH]c(=O)c1 (single isomer, unassigned) [Example 16_1]	0.03
C[C@@H]1COCCN1c1cc(N2CCN(C(=O)C3CCCO3)CC2C(F)(F)F)[nH]c(=O)c1 (single isomer, unassigned) [Example 48_2]	0.02
C[C@@H]1COCCN1c1cc(N2CCCC2c2cccc(N(C)C)c2)[nH]c(=O)c1 (mixture of isomers) [Example 23, (R) and (S) 6-[2-[3-(dimethylamino)phenyl]pyrrolidin-1-yl]-4-[(3R)-3-methylmorpholin-4-yl]-1H-pyridin-2-one]	0.03
Cc1ccc(C2CCCN2c2cc(N3CCOC[C@H]3C)cc(=O)[nH]2)o1 (single isomer, unassigned) [Example 22_1]	0.04
C[C@@H]1COCCN1c1cc(N2CCOCC2C2CC2)[nH]c(=O)c1 (stereo partly drawn) [Example 33, 6-(3-cyclopropylmorpholin-4-yl)-4-[(3R)-3-methylmorpholin-4-yl]-1H-pyridin-2-one]	0.03
C[C@@H]1COCCN1c1cc(N2CCOCC2c2ccccc2)[nH]c(=O)c1 (single isomer, unassigned) [Example 26_2]	0.3
